The test system of one experiment is myelocytes of rats. The experiment in a line: Formation of osteoclasts from rat myelocytes (RANKL + M-CSF, TRAP stain). In kind it is cell-based, Wistar rats. Particulars: Rattus norvegicus, Osteoclast, 216 h, 10 nM, 9 days. The protocol: Myelocytes were first prepared. Male Wistar rats with the body weight of 250 g to 300 g were used to prepare myelocytes. Under the condition of anaesthesia, the femurs of the rats were taken, and myelocytes were washed out with a phosphate buffer solution. […] After incubation for 9 days, monocytes in the marrow differentiated into osteoclasts. The osteoclasts were stained with a TRAP (tartrate-resistant acid phosphatase) stain reagent (Sigma, Louis, Mo., USA), and the number of the osteoclasts was calculated. Besides the same RANKL and M-CSF as the control group, various concentrations (0, 5, 25, 50, and 100 μM) of kinsenoside or 10 nM of estradiol (Wako, Japan) were added into culture plates, respectively. Then, rat myelocytes were incubated for 9 days, and the situation that the myelocytes differentiated into osteoclasts was observed. The percentage of the inhibition effect of kinsenoside and estradiol on the formation of osteoclasts was calculated with the following formula, and the result is shown in Table 9. Inhibition percentage (%)=(the number of osteoclasts of the control group−the number of osteoclasts of the experimental group)/the number of osteoclasts of the control group×100% In addition to the aforesaid RANKL, kinsenoside, and/or estradiol, the inhibitor of estradiol, Fulvestrant (Sigma, Louis, Mo., USA) (1 nM), was also added into culture plates. Then, rat myelocytes were incubated for 9 days, and the situation that the myelocytes differentiated into osteoclasts was observed. The percentage of the inhibition effect of kinsenoside on the formation of osteoclasts was calculated, and the result is shown in Table 9.

A further experiment deals with macrophages RAW 264.7. Description: Formation of osteoclasts from macrophages RAW 264.7 (RANKL, TRAP stain). It is filed as cell-based. As to conditions: Mus musculus, RAW264.7, 120 h; 10 nM, RANKL 50 ng/ml, 5 days; read-out: inhibition percentage. Here is the method: If macrophages RAW 264.7 are incubated in culture plates containing 50 ng/ml of differentiation inducer, RANKL, they usually differentiate into osteoclasts after 5 days. In Experiment H, various concentrations (0, 10, and 50 μM) of kinsenoside or 10 nM of estradiol were added into culture plates containing macrophages RAW 264.7, respectively, and the macrophages RAW 264.7 were incubated for 5 days. […] The number of osteoclasts was counted, and the inhibition percentage of the formation of osteoclasts was calculated with the following formula, and the result is shown in Table 11. Inhibition percentage=(the number of osteoclasts in the control group−the number of osteoclasts in the experimental group)/the number of osteoclasts in the control group×100%

Where two headings read alike, the source gives them in different places.

On to `C[C@]12CC[C@@H]3c4ccc(O)cc4CC[C@H]3[C@@H]1CC[C@@H]2O` [estradiol, reference compound], for which the inhibition at 0.01 µM amounted to 24 ± 13.5% in the experiment on myelocytes of rats (with Fulvestrant 1 nM, read-out: inhibition percentage Experimental Group II); 45.7 ± 10.5% with myelocytes of rats (without Fulvestrant, read-out: inhibition percentage Experimental Group I); 61 ± 16% in the experiment on macrophages RAW 264.7.

For orientation: inhibition means the share of the control response that was lost under treatment.
